target: human GPR40 receptor (Homo sapiens, UniProt O14842); test: IP1 accumulation measurements using the IPOne assay system in 1321N1 cells stably expressing human GPR40 receptor; type: cell-based; conditions: 1321N1 cells expressing human GPR40, 1 hour stimulation at 37° C., Table 2
Procedure: (§1) IP1 is assayed according to the Manufacturer's description (Cisbio Bioassays, France). In brief, the assay is started by substitution of the culture medium by stimulation buffer (Hepes 10 mM, CaCl2 1 mM, MgCl2 0.5 mM, KCl 4.2 mM, NaCl 146 mM and glucose 5.5 mM, pH 7.4) without LiCl or with […]. Cells are stimulated for 1 hour at 37° C., 5 or 10% CO2 by addition of the compounds that are diluted in stimulation buffer containing LiCl yielding a final LiCl concentration of 50 mM. Assays are stopped by adding HTRF-conjugates (IP1-d2 and Anti-IP1 cryptate Tb) and lysis buffer, provided by the manufacturer. After an incubation time of 1 hour at room temperature plates are measured using an EnVision™, Perkin Elmer. The obtained fluorescence ratios at […] are then used to calculate the pEC50 values using GraphPad Prism 5 (Graphpad Software Inc, USA) or Assay Explorer 3.3 Software (Accelrys, Inc.) by interpolation using an IP1 reference curve and subsequent sigmoidal curve fitting allowing for a variable hill slope.
as §1, with “IP1 accumulation measurements using the IPOne assay system—1321N1 cells stably expressing human GPR40 receptor (Euroscreen, Belgium) are seeded 24 h before the assay in black clear-bottom collagen-coated or white 384-well plates in culture medium containing 10% FCS, 1% Na-Pyruvate and 400 μg/mL G418. IP1 is” for “IP1 is”

human GPR40 receptor, sequence (O14842 whole entry): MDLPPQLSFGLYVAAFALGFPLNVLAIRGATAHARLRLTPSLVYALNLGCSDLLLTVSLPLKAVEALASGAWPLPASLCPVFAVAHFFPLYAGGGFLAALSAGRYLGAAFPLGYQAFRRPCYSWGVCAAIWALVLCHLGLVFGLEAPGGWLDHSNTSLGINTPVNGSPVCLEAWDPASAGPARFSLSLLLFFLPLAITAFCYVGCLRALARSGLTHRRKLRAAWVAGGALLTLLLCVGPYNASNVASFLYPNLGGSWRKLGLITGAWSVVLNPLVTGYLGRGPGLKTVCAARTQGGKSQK

Compound	EC50
O=C(O)[C@H]1C[C@@H]1c1ccc(O[C@@H]2CCc3c(Oc4ccc(OCc5ccccc5)cc4)ccc(F)c32)cc1 [Example 1]	6 nM
O=C(O)[C@H]1C[C@@H]1c1ccc(O[C@@H]2CCc3c(Oc4ccc(O)cc4)ccc(F)c32)cc1 [Example 2]	6 nM
O=C(O)[C@H]1C[C@@H]1c1ccc(O[C@@H]2CCc3c(Oc4ccc(OCc5ccccc5)c(F)c4)ccc(F)c32)cc1 [Example 3]	5 nM
CC(C)(O)CCOc1ccc(Oc2ccc(F)c3c2CC[C@H]3Oc2ccc([C@H]3C[C@@H]3C(=O)O)cc2)cc1 [Example 4]	5 nM
O=C(O)[C@H]1C[C@@H]1c1ccc(O[C@@H]2CCc3c(Oc4ccc(OCC5(O)CCOCC5)cc4)ccc(F)c32)cc1 [Example 5]	7 nM
O=C(O)[C@H]1C[C@@H]1c1ccc(O[C@@H]2CCc3c(Oc4ccc(OC5CCOCC5)cc4)ccc(F)c32)cc1 [Example 6]	2 nM
CS(=O)(=O)CCCOc1ccc(Oc2ccc(F)c3c2CC[C@H]3Oc2ccc([C@H]3C[C@@H]3C(=O)O)cc2)cc1 [Example 7]	4 nM
COCCOc1ccc(Oc2ccc(F)c3c2CC[C@H]3Oc2ccc([C@H]3C[C@@H]3C(=O)O)cc2)cc1 [Example 8]	5 nM
CC(C)(O)COc1ccc(Oc2ccc(F)c3c2CC[C@H]3Oc2ccc([C@H]3C[C@@H]3C(=O)O)cc2)cc1 [Example 9]	5 nM
O=C(O)[C@H]1C[C@@H]1c1ccc(O[C@@H]2CCc3c(Oc4ccc(OCCO)cc4)ccc(F)c32)cc1 [Example 10]	7 nM
CC(C)(O)CCOc1ccc(Oc2ccc(F)c3c2CC[C@H]3Oc2ccc([C@H]3C[C@@H]3C(=O)O)cc2)cc1F [Example 11]	3 nM
O=C(O)[C@H]1C[C@@H]1c1ccc(O[C@@H]2CCc3c(Oc4ccc(OC5CCOCC5)c(F)c4)ccc(F)c32)cc1 [Example 12]	4 nM
COCCOc1ccc(Oc2ccc(F)c3c2CC[C@H]3Oc2ccc([C@H]3C[C@@H]3C(=O)O)cc2)cc1F [Example 13]	8 nM
O=C(O)[C@H]1C[C@@H]1c1ccc(O[C@@H]2CCc3c(Oc4ccc(OCCN5CCOCC5)cc4)ccc(F)c32)cc1 [Example 14]	3 nM
CS(=O)(=O)CCCOc1ccc(Oc2ccc(F)c3c2CC[C@H]3Oc2ccc([C@H]3C[C@@H]3C(=O)O)cc2)cc1F [Example 15]	8 nM
O=C(O)c1ccc(Oc2ccc(F)c3c2CC[C@H]3Oc2ccc([C@H]3C[C@@H]3C(=O)O)cc2)cc1 [Example 16]	92 nM
CNC(=O)c1ccc(Oc2ccc(F)c3c2CC[C@H]3Oc2ccc([C@H]3C[C@@H]3C(=O)O)cc2)cc1 [Example 17]	9 nM
O=C(NCC1CC1)c1ccc(Oc2ccc(F)c3c2CC[C@H]3Oc2ccc([C@H]3C[C@@H]3C(=O)O)cc2)cc1 [Example 18]	6 nM
CN(CCO)C(=O)c1ccc(Oc2ccc(F)c3c2CC[C@H]3Oc2ccc([C@H]3C[C@@H]3C(=O)O)cc2)cc1 [Example 19]	48 nM
CN(C)C(=O)c1ccc(Oc2ccc(F)c3c2CC[C@H]3Oc2ccc([C@H]3C[C@@H]3C(=O)O)cc2)cc1 [Example 20]	11 nM
O=C(NC1CCOCC1)c1ccc(Oc2ccc(F)c3c2CC[C@H]3Oc2ccc([C@H]3C[C@@H]3C(=O)O)cc2)cc1 [Example 21]	3 nM
O=C(O)[C@H]1C[C@@H]1c1ccc(O[C@@H]2CCc3c(Oc4ccc(C(=O)N5CCOCC5)cc4)ccc(F)c32)cc1 [Example 22]	27 nM
CCNC(=O)c1ccc(Oc2ccc(F)c3c2CC[C@H]3Oc2ccc([C@H]3C[C@@H]3C(=O)O)cc2)cc1 [Example 23]	12 nM

Compound	EC50
N#Cc1ccc(Oc2ccc(F)c3c2CC[C@H]3Oc2ccc([C@H]3C[C@@H]3C(=O)O)cc2)cc1 [Example 24]	2 nM
Cc1cc(C#N)ccc1Oc1ccc(F)c2c1CC[C@H]2Oc1ccc([C@H]2C[C@@H]2C(=O)O)cc1 [Example 25]	2 nM
N#Cc1ccc(Oc2ccc(F)c3c2CC[C@H]3Oc2ccc([C@H]3C[C@@H]3C(=O)O)cc2)c(F)c1 [Example 26]	19 nM
COc1cc(Oc2ccc(F)c3c2CC[C@H]3Oc2ccc([C@H]3C[C@@H]3C(=O)O)cc2)ccc1C#N [Example 27]	2 nM
N#Cc1ccc(Oc2c(F)cc(F)c3c2CC[C@H]3Oc2ccc([C@H]3C[C@@H]3C(=O)O)cc2)cc1 [Example 28]	1 nM
Cn1nnc(-c2ccc(Oc3ccc(F)c4c3CC[C@H]4Oc3ccc([C@H]4C[C@@H]4C(=O)O)cc3)cc2)n1 [Example 29]	3 nM
CC(C)c1ccn(-c2ccc(Oc3ccc(F)c4c3CC[C@H]4Oc3ccc([C@H]4C[C@@H]4C(=O)O)cc3)cc2)n1 [Example 30]	8 nM
Cc1cc(Oc2ccc(F)c3c2CC[C@H]3Oc2ccc([C@H]3C[C@@H]3C(=O)O)cc2)cc(C)c1OCCC(C)(C)O [Example 31]	9 nM
Cc1noc(-c2ccc(Oc3ccc(F)c4c3CC[C@H]4Oc3ccc([C@H]4C[C@@H]4C(=O)O)cc3)cc2)n1 [Example 32]	4 nM
Cc1nc(-c2ccc(Oc3ccc(F)c4c3CC[C@H]4Oc3ccc([C@H]4C[C@@H]4C(=O)O)cc3)cc2)nn1C [Example 33]	5 nM
CC(C)(O)CNC(=O)c1ccc(Oc2ccc(F)c3c2CC[C@H]3Oc2ccc([C@H]3C[C@@H]3C(=O)O)cc2)cc1 [Example 34]	16 nM
Cc1nc(-c2ccc(Oc3ccc(F)c4c3CC[C@H]4Oc3ccc([C@H]4C[C@@H]4C(=O)O)cc3)cc2)no1 [Example 35]	3 nM
Cn1ncc2ccc(Oc3ccc(F)c4c3CC[C@H]4Oc3ccc([C@H]4C[C@@H]4C(=O)O)cc3)cc21 [Example 36]	2 nM
Cc1nc2ccc(Oc3ccc(F)c4c3CC[C@H]4Oc3ccc([C@H]4C[C@@H]4C(=O)O)cc3)cc2s1 [Example 37]	2 nM
CS(=O)(=O)c1ccc(Oc2ccc(F)c3c2CC[C@H]3Oc2ccc([C@H]3C[C@@H]3C(=O)O)cc2)cc1 [Example 38]	27 nM
Cc1ccc2cc(Oc3ccc(F)c4c3CC[C@H]4Oc3ccc([C@H]4C[C@@H]4C(=O)O)cc3)ccc2n1 [Example 39]	6 nM
N#Cc1ccc2c(c1Cc1ccc(Cl)nc1)CC[C@H]2Oc1ccc([C@H]2C[C@@H]2C(=O)O)cc1 [Example 40, (1S,2S)-2-{4-[(R)-4-(6-Chloro-pyridin-3-ylmethyl)-5-cyano-indan-1-yloxy]-phenyl}-cyclopropanecarboxylic acid]	45 nM
Cc1cc(C#N)cc(C)c1S(=O)(=O)c1cccc2c1CC[C@H]2Oc1ccc([C@H]2C[C@@H]2C(=O)O)cc1 [Example 41]	12 nM
Cc1cccc(C)c1S(=O)(=O)c1cccc2c1CC[C@H]2Oc1ccc([C@H]2C[C@@H]2C(=O)O)cc1 [Example 42]	4 nM
O=C(O)C1CC1c1ccc(O[C@@H]2CCc3c2cccc3S(=O)(=O)c2ccccc2)cc1 (stereo partly shown) [Example 43]	37 nM
O=C(O)C1CC1c1ccc(O[C@@H]2CCc3c2cccc3[S+]([O-])c2ccccc2)cc1 (stereo partly shown) [Example 44]	197 nM
O=C(O)[C@H]1C[C@@H]1c1ccc(O[C@@H]2CCc3c(Oc4ccccc4)ccc(F)c32)cc1 [Example 45, (1S,2S)-2-[4-((R)-7-Fluoro-4-phenoxy-indan-1-yloxy)-phenyl]-cyclopropanecarboxylic acid]	2 nM
COc1ccc(Cc2c(C#N)ccc3c2CC[C@H]3Oc2ccc([C@H]3C[C@@H]3C(=O)O)cc2)cn1 [Example 46, (1S,2S)-2-{4-[(R)-5-Cyano-4-(6-methoxy-pyridin-3-ylmethyl)-indan-1-yloxy]-phenyl}-cyclopropanecarboxylic acid]	8 nM
